Tested on: C57BL/6J mice
Assay: Head-Twitch Response (HTR) in mice
Type: in vivo
Details: Mus musculus, ip, 0.5 h; read-out: HTR ED50 μmol/kg (95% CI)
Method: Male C57BL/6J mice (6-8 weeks old) were obtained from Jackson Laboratories (Bar Harbor, ME) and housed in a vivarium at the University of California San Diego, an AAALAC-approved animal facility that meets all federal and state requirements for care and treatment of laboratory animals. All animal experiments were carried out in accordance with NIH guidelines and were approved by the UCSD Institutional Animal Care and Use Committee. Mice were housed up to four per cage in a climate-controlled room on a reverse-light cycle (lights on at 1900 h, off at 0700 h). Animals were provided with ad libitum access to food and water, with the exception of during behavioral testing.
Testing was conducted between 1000 and 1800 h. Head movements were recorded using a head-mounted magnet and a magnetometer coil as described in Halberstadt et al. (Psychopharmacology, 2013, 227(4):727-739). For the head mounted magnet, mice were anesthetized, an incision was made in the scalp, and a neodymium magnet was attached to the dorsal surface of the cranium using dental cement. Following a 2-week recovery period, behavioral experiments were conducted in a well-lit room. At least 7 days occurred between sessions to avoid any carryover effects. Test substances (i.e., dimethyltryptamine (DMT), diethyltryptamine (DET), psilocybin, 6-fluoro-diethyltryptamine (6-F-DET), compounds 3-4, 6, 9, 12-13, 22, 33, 41, 69, 88, 166, and 178) were administered intraperitoneally (IP) at a volume of 5 mL/kg. Mice were treated with vehicle (saline) or 6 doses of the test compound and then placed in a glass cylinder surrounded by a magnetometer coil and tested for 30 min. Coil voltage was filtered (1 kHz lowpass), digitized (20 kHz sampling rate) and saved to disk using a Powerlab/8SP with LabChart v 7.3.2 (ADInstruments, Colorado Springs, CO).
The entire 30 min recordings were examined for head twitches. Established procedures based on artificial intelligence were used to identify head twitches in the recordings (Scientific Reports, 2020, 10(1):1-12). HTR counts were analyzed using one-way analyses of variance (ANOVA), followed by post hoc pairwise comparisons between individual groups and vehicle using Dunnett's multiple comparisons test. […] Median effective doses (ED50 values) and 95% confidence intervals (95% CI) were calculated using nonlinear regression (Prism 9.0.2, GraphPad Software, San Diego, CA) (Table 4 and FIGS. 1-3).

Compound	ED50
CCCN(CCc1c[nH]c2ccc(F)cc12)C(C)CC (centres unmarked) [compound 22, N-(2-(5-fluoro-1H-indol-3-yl)ethyl)-N-propylbutan-2-amine]	12.4 µmol/kg
CCCN(CCc1c[nH]c2ccc(F)cc12)C1CCC1 [compound 33, N-(2-(5-fluoro-1H-indol-3-yl)ethyl)-N-propylcyclobutanamine]	2.55 µmol/kg
CCCN(CC)CCc1c[nH]c2c(F)cc(OC)cc12 [compound 41, N-ethyl-N-(2-(7-fluoro-5-methoxy-1H-indol-3-yl)ethyl)propan-1-amine]	3.56 µmol/kg
CCN(C)CCc1c[nH]c2c(F)cc(F)cc12 [compound 69, 2-(5,7-difluoro-1H-indol-3-yl)-N-ethyl-N-methylethan-1-amine]	4.81 µmol/kg
CCN(C)CCc1c[nH]c2c(F)cc(OC)cc12 [compound 88, N-ethyl-2-(7-fluoro-5-methoxy-1H-indol-3-yl)-N-methylethan-1-amine]	1.95 µmol/kg
CCCN(CC)CCc1c[nH]c2c(F)cc(C)cc12 [compound 166, N-ethyl-N-(2-(7-fluoro-5-methyl-1H-indol-3-yl)ethyl)propan-1-amine]	6.56 µmol/kg
C=CC(C)N(C)CCc1c[nH]c2ccc(F)cc12 (centres unmarked) [compound 178, N-(2-(5-fluoro-1H-indol-3-yl)ethyl)-N-methylbut-3-en-2-amine]	3.53 µmol/kg

Same assay, conditions: Mus musculus, ip, 0.5 h; read-out: HTR ED50 mg/kg (95% CI)

Compound	ED50
CCCN(CCc1c[nH]c2ccc(F)cc12)C(C)CC (centres unmarked) [compound 22, N-(2-(5-fluoro-1H-indol-3-yl)ethyl)-N-propylbutan-2-amine]	3.88 mg/kg
CCCN(CCc1c[nH]c2ccc(F)cc12)C1CCC1 [compound 33, N-(2-(5-fluoro-1H-indol-3-yl)ethyl)-N-propylcyclobutanamine]	0.79 mg/kg
CCCN(CC)CCc1c[nH]c2c(F)cc(OC)cc12 [compound 41, N-ethyl-N-(2-(7-fluoro-5-methoxy-1H-indol-3-yl)ethyl)propan-1-amine]	1.12 mg/kg
CCN(C)CCc1c[nH]c2c(F)cc(F)cc12 [compound 69, 2-(5,7-difluoro-1H-indol-3-yl)-N-ethyl-N-methylethan-1-amine]	1.32 mg/kg
CCN(C)CCc1c[nH]c2c(F)cc(OC)cc12 [compound 88, N-ethyl-2-(7-fluoro-5-methoxy-1H-indol-3-yl)-N-methylethan-1-amine]	0.56 mg/kg
CCCN(CC)CCc1c[nH]c2c(F)cc(C)cc12 [compound 166, N-ethyl-N-(2-(7-fluoro-5-methyl-1H-indol-3-yl)ethyl)propan-1-amine]	1.96 mg/kg
C=CC(C)N(C)CCc1c[nH]c2ccc(F)cc12 (centres unmarked) [compound 178, N-(2-(5-fluoro-1H-indol-3-yl)ethyl)-N-methylbut-3-en-2-amine]	0.87 mg/kg

Same assay, conditions: compared to vehicle

Compound	HTR counts over baseline / induction of HTR
CCN(CC)CCc1c[nH]c2cc(F)ccc12 [6-F-DET, 6-fluoro-N,N-diethyltryptamine, reference compound]	inactive
CCN(CC)CCc1c[nH]c2cccc(F)c12 [Example 8, N,N-diethyl-2-(4-fluoro-1H-indol-3-yl)ethan-1-amine]	inactive

Molecular target: 5-HT1A (Homo sapiens (Human), UniProt P08908)
Assay: 5-HT1A Gi/o-mediated cAMP inhibition, GloSensor assay
Type: cell-based
Details: not given

Compound	EC50
CCCN(CCc1c[nH]c2ccc(F)cc12)C(C)CC (centres unmarked) [compound 22, N-(2-(5-fluoro-1H-indol-3-yl)ethyl)-N-propylbutan-2-amine]	0.324 µM
CCCN(CCc1c[nH]c2ccc(F)cc12)C1CCC1 [compound 33, N-(2-(5-fluoro-1H-indol-3-yl)ethyl)-N-propylcyclobutanamine]	0.0145 µM

Same assay, conditions: cAMP inhibition, 0.2 μM isoproterenol; IA = Inactive

Compound	5-HT1A-cAMP Emax (% 5-HT)	5-HT1A-cAMP pEC50
CCCN(CCc1c[nH]c2ccc(F)cc12)C(C)CC (centres unmarked) [compound 22, N-(2-(5-fluoro-1H-indol-3-yl)ethyl)-N-propylbutan-2-amine]	102.90 ± 1.9 % 5-HT	–
CCCN(CCc1c[nH]c2ccc(F)cc12)C1CCC1 [compound 33, N-(2-(5-fluoro-1H-indol-3-yl)ethyl)-N-propylcyclobutanamine]	100.7 ± 1.3 % 5-HT	7.84 ± 0.04

Molecular target: 5-HT2C (Homo sapiens (Human), UniProt P28335)
Assay: 5-HT2C Gq-mediated calcium flux functional assay
Type: cell-based
Details: not given

Chain of 5-HT2C (P28335 whole entry, looked up): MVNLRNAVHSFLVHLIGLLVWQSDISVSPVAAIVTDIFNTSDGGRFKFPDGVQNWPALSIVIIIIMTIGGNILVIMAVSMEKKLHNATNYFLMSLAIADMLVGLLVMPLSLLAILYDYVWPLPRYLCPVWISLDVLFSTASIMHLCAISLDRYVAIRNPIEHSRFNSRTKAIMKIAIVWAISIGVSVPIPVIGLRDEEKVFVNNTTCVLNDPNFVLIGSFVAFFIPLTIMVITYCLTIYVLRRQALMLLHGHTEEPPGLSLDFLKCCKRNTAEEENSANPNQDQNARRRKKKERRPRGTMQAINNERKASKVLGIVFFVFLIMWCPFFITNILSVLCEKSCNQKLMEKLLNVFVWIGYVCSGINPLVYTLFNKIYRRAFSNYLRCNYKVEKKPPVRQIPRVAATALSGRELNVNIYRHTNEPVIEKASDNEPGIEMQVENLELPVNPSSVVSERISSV

Compound	EC50
CCCN(CCc1c[nH]c2ccc(F)cc12)C(C)CC (centres unmarked) [compound 22, N-(2-(5-fluoro-1H-indol-3-yl)ethyl)-N-propylbutan-2-amine]	0.0501 µM
CCCN(CCc1c[nH]c2ccc(F)cc12)C1CCC1 [compound 33, N-(2-(5-fluoro-1H-indol-3-yl)ethyl)-N-propylcyclobutanamine]	0.0191 µM
CCN(C)CCc1c[nH]c2c(F)cc(OC)cc12 [compound 88, N-ethyl-2-(7-fluoro-5-methoxy-1H-indol-3-yl)-N-methylethan-1-amine]	0.0204 µM
CCCN(CC)CCc1c[nH]c2c(F)cc(C)cc12 [compound 166, N-ethyl-N-(2-(7-fluoro-5-methyl-1H-indol-3-yl)ethyl)propan-1-amine]	0.2 µM
C=CC(C)N(C)CCc1c[nH]c2ccc(F)cc12 (centres unmarked) [compound 178, N-(2-(5-fluoro-1H-indol-3-yl)ethyl)-N-methylbut-3-en-2-amine]	0.0158 µM

Same assay, conditions: IA = Inactive; N=1-3

Compound	5-HT2C-Ca2+ FLUX Emax (% 5-HT)	5-HT2C-Ca2+ FLUX pEC50
CCCN(CCc1c[nH]c2ccc(F)cc12)C(C)CC (centres unmarked) [compound 22, N-(2-(5-fluoro-1H-indol-3-yl)ethyl)-N-propylbutan-2-amine]	97.5 ± 2.6 % 5-HT	–
CCCN(CCc1c[nH]c2ccc(F)cc12)C1CCC1 [compound 33, N-(2-(5-fluoro-1H-indol-3-yl)ethyl)-N-propylcyclobutanamine]	105.4 ± 1.8 % 5-HT	7.72 ± 0.05
CCN(C)CCc1c[nH]c2c(F)cc(OC)cc12 [compound 88, N-ethyl-2-(7-fluoro-5-methoxy-1H-indol-3-yl)-N-methylethan-1-amine]	86.8 ± 1.4 % 5-HT	–
CCCN(CC)CCc1c[nH]c2c(F)cc(C)cc12 [compound 166, N-ethyl-N-(2-(7-fluoro-5-methyl-1H-indol-3-yl)ethyl)propan-1-amine]	94.6 ± 1.7 % 5-HT	–
C=CC(C)N(C)CCc1c[nH]c2ccc(F)cc12 (centres unmarked) [compound 178, N-(2-(5-fluoro-1H-indol-3-yl)ethyl)-N-methylbut-3-en-2-amine]	87.4 ± 1.5 % 5-HT	–

Molecular target: 5-HT2A (Homo sapiens (Human), UniProt P28223)
Assay: 5-HT2A Gq-mediated calcium flux functional assay
Type: cell-based
Details: not given

Compound	EC50
CCCN(CCc1c[nH]c2ccc(F)cc12)C(C)CC (centres unmarked) [compound 22, N-(2-(5-fluoro-1H-indol-3-yl)ethyl)-N-propylbutan-2-amine]	0.000891 µM
CCCN(CCc1c[nH]c2ccc(F)cc12)C1CCC1 [compound 33, N-(2-(5-fluoro-1H-indol-3-yl)ethyl)-N-propylcyclobutanamine]	0.00049 µM
CCN(C)CCc1c[nH]c2c(F)cc(OC)cc12 [compound 88, N-ethyl-2-(7-fluoro-5-methoxy-1H-indol-3-yl)-N-methylethan-1-amine]	0.00195 µM
CCCN(CC)CCc1c[nH]c2c(F)cc(C)cc12 [compound 166, N-ethyl-N-(2-(7-fluoro-5-methyl-1H-indol-3-yl)ethyl)propan-1-amine]	0.0182 µM
C=CC(C)N(C)CCc1c[nH]c2ccc(F)cc12 (centres unmarked) [compound 178, N-(2-(5-fluoro-1H-indol-3-yl)ethyl)-N-methylbut-3-en-2-amine]	0.00537 µM

Same assay, conditions: IA = Inactive; N=1-3

Compound	5-HT2A-Ca2+ FLUX Emax (% 5-HT)	5-HT2A-Ca2+ FLUX pEC50
CCCN(CCc1c[nH]c2ccc(F)cc12)C(C)CC (centres unmarked) [compound 22, N-(2-(5-fluoro-1H-indol-3-yl)ethyl)-N-propylbutan-2-amine]	105.4 ± 1.6 % 5-HT	–
CCCN(CCc1c[nH]c2ccc(F)cc12)C1CCC1 [compound 33, N-(2-(5-fluoro-1H-indol-3-yl)ethyl)-N-propylcyclobutanamine]	107.0 ± 1.9 % 5-HT	9.31 ± 0.06
CCN(C)CCc1c[nH]c2c(F)cc(OC)cc12 [compound 88, N-ethyl-2-(7-fluoro-5-methoxy-1H-indol-3-yl)-N-methylethan-1-amine]	90.6 ± 0.8 % 5-HT	–
CCCN(CC)CCc1c[nH]c2c(F)cc(C)cc12 [compound 166, N-ethyl-N-(2-(7-fluoro-5-methyl-1H-indol-3-yl)ethyl)propan-1-amine]	98.1 ± 0.7 % 5-HT	–
C=CC(C)N(C)CCc1c[nH]c2ccc(F)cc12 (centres unmarked) [compound 178, N-(2-(5-fluoro-1H-indol-3-yl)ethyl)-N-methylbut-3-en-2-amine]	84.7 ± 1.2 % 5-HT	–

Molecular target: Serotonin 5-HT2A (human) (Homo sapiens (Human), UniProt P28223)
Assay: 5-HT2A receptor binding, [3H]-ketanserin competition in membrane fractions
Details: 1 nM [3H]-ketanserin, Cheng-Prusoff, N=1-3

Compound	5-HT2A pKi ± SEM
CCN(CC)CCc1c[nH]c2cccc(F)c12 [Example 8, N,N-diethyl-2-(4-fluoro-1H-indol-3-yl)ethan-1-amine]	6.09
CCCN(CCc1c[nH]c2ccc(F)cc12)C(C)CC (centres unmarked) [compound 22, N-(2-(5-fluoro-1H-indol-3-yl)ethyl)-N-propylbutan-2-amine]	5.97 ± 0.02
CCCN(CCc1c[nH]c2ccc(F)cc12)C1CCC1 [compound 33, N-(2-(5-fluoro-1H-indol-3-yl)ethyl)-N-propylcyclobutanamine]	6.25 ± 0.003
CCCN(CC)CCc1c[nH]c2c(F)cc(OC)cc12 [compound 41, N-ethyl-N-(2-(7-fluoro-5-methoxy-1H-indol-3-yl)ethyl)propan-1-amine]	6.15 ± 0.34
CCN(C)CCc1c[nH]c2c(F)cc(F)cc12 [compound 69, 2-(5,7-difluoro-1H-indol-3-yl)-N-ethyl-N-methylethan-1-amine]	6.90 ± 0.002
CCN(C)CCc1c[nH]c2c(F)cc(OC)cc12 [compound 88, N-ethyl-2-(7-fluoro-5-methoxy-1H-indol-3-yl)-N-methylethan-1-amine]	6.71 ± 0.31
CCCN(CC)CCc1c[nH]c2c(F)cc(C)cc12 [compound 166, N-ethyl-N-(2-(7-fluoro-5-methyl-1H-indol-3-yl)ethyl)propan-1-amine]	5.96 ± 0.25
C=CC(C)N(C)CCc1c[nH]c2ccc(F)cc12 (centres unmarked) [compound 178, N-(2-(5-fluoro-1H-indol-3-yl)ethyl)-N-methylbut-3-en-2-amine]	6.25

Molecular target: 5-HT2B (Homo sapiens (Human), UniProt P41595)
Assay: 5-HT2B Gq-mediated calcium flux functional assay
Type: cell-based
Details: not given

Chain of 5-HT2B (P41595 whole entry): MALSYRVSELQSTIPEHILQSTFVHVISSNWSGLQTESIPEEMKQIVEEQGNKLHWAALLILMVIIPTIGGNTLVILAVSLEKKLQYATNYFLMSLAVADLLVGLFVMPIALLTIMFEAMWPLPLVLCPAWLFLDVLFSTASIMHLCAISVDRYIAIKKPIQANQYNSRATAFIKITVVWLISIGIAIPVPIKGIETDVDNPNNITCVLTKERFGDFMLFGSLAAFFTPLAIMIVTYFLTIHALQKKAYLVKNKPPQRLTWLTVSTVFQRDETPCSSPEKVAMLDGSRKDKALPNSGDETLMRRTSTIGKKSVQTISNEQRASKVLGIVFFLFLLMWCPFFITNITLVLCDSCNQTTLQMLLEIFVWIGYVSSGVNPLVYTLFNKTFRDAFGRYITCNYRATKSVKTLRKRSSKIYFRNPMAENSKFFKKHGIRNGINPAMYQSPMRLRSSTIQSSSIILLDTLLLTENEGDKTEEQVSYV

Compound	EC50
CCCN(CCc1c[nH]c2ccc(F)cc12)C(C)CC (centres unmarked) [compound 22, N-(2-(5-fluoro-1H-indol-3-yl)ethyl)-N-propylbutan-2-amine]	0.000813 µM
CCCN(CCc1c[nH]c2ccc(F)cc12)C1CCC1 [compound 33, N-(2-(5-fluoro-1H-indol-3-yl)ethyl)-N-propylcyclobutanamine]	0.000589 µM
CCN(C)CCc1c[nH]c2c(F)cc(OC)cc12 [compound 88, N-ethyl-2-(7-fluoro-5-methoxy-1H-indol-3-yl)-N-methylethan-1-amine]	0.00562 µM
CCCN(CC)CCc1c[nH]c2c(F)cc(C)cc12 [compound 166, N-ethyl-N-(2-(7-fluoro-5-methyl-1H-indol-3-yl)ethyl)propan-1-amine]	0.0331 µM
C=CC(C)N(C)CCc1c[nH]c2ccc(F)cc12 (centres unmarked) [compound 178, N-(2-(5-fluoro-1H-indol-3-yl)ethyl)-N-methylbut-3-en-2-amine]	0.0055 µM

Same assay, conditions: IA = Inactive; N=1-3

Compound	5-HT2B-Ca2+ FLUX Emax (% 5-HT)	5-HT2B-Ca2+ FLUX pEC50
CCCN(CCc1c[nH]c2ccc(F)cc12)C(C)CC (centres unmarked) [compound 22, N-(2-(5-fluoro-1H-indol-3-yl)ethyl)-N-propylbutan-2-amine]	98.9 ± 1.6 % 5-HT	–
CCCN(CCc1c[nH]c2ccc(F)cc12)C1CCC1 [compound 33, N-(2-(5-fluoro-1H-indol-3-yl)ethyl)-N-propylcyclobutanamine]	115.6 ± 2.2 % 5-HT	9.23 ± 0.07
CCN(C)CCc1c[nH]c2c(F)cc(OC)cc12 [compound 88, N-ethyl-2-(7-fluoro-5-methoxy-1H-indol-3-yl)-N-methylethan-1-amine]	37.5 ± 0.7 % 5-HT	–
CCCN(CC)CCc1c[nH]c2c(F)cc(C)cc12 [compound 166, N-ethyl-N-(2-(7-fluoro-5-methyl-1H-indol-3-yl)ethyl)propan-1-amine]	95.9 ± 0.7 % 5-HT	–
C=CC(C)N(C)CCc1c[nH]c2ccc(F)cc12 (centres unmarked) [compound 178, N-(2-(5-fluoro-1H-indol-3-yl)ethyl)-N-methylbut-3-en-2-amine]	27.7 ± 0.5 % 5-HT	–

Source: patent US20240286998A1, “F[…], ANALOGUES THEREOF, AND METHODS USING SAME” (Saint Joseph's University, priority 2021, published 2024)
